Source: PubChem BioAssay AID330 (DTP/NCI, 2004)
Values joined by “and” are separate entries in the source; they are usually repeats but may differ in a detail not shown here. Equal entries are not always repeated. Toxic doses and inconclusive results are not listed. How the source made its calls: active means survival T/C of 150% or more; inactive means T/C below 125% in these data.

Test system: P388 leukemia ip, CD2F1 mice, survival T/C
Test: NCI In Vivo Anticancer Drug Screen. Data for tumor model P388 Leukemia (intraperitoneal) in CD2F1 (CDF1) mice
Conditions: endpoint: median survival time, higher = longer survival
How it was run: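 Mice carrying the transplanted tumor received test compound or vehicle. Survival was recorded in each group, and the value is the treated-group measurement divided by that of the vehicle-treated control group.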

[1] = dose: 60.0 mg/kg/injection, schedule: Q01DX005 (ip), vehicle: saline with Tween-80
[2] = dose: 120.0 mg/kg/injection, schedule: Q01DX005 (ip), vehicle: saline with Tween-80
[3] = dose: 240.0 mg/kg/injection, schedule: Q01DX005 (ip), vehicle: saline with Tween-80
[4] = dose: 50.0 mg/kg/injection, schedule: Q01DX005 (ip), vehicle: saline with Tween-80
[5] = dose: 100.0 mg/kg/injection, schedule: Q01DX005 (ip), vehicle: saline with Tween-80
[6] = dose: 50.0 mg/kg/injection, schedule: Q01DX005 (ip), vehicle: Klucel (hydroxypropylcellulose) (HPC)
[7] = dose: 100.0 mg/kg/injection, schedule: Q04DX003 (ip), vehicle: saline
[8] = dose: 200.0 mg/kg/injection, schedule: Q04DX003 (ip), vehicle: saline
[9] = dose: 400.0 mg/kg/injection, schedule: Q04DX003 (ip), vehicle: saline
[10] = dose: 25.0 mg/kg/injection, schedule: Q01DX009 (ip), vehicle: saline with Tween-80
[11] = dose: 50.0 mg/kg/injection, schedule: Q01DX009 (ip), vehicle: saline with Tween-80
[12] = dose: 100.0 mg/kg/injection, schedule: Q04DX002 (ip), vehicle: saline with Tween-80
[13] = dose: 200.0 mg/kg/injection, schedule: Q04DX002 (ip), vehicle: saline with Tween-80
[14] = dose: 400.0 mg/kg/injection, schedule: Q04DX002 (ip), vehicle: saline with Tween-80
[15] = dose: 100.0 mg/kg/injection, schedule: Q01DX009 (ip), vehicle: saline with Tween-80
[16] = dose: 200.0 mg/kg/injection, schedule: Q01DX009 (ip), vehicle: saline with Tween-80

Measured: T/C

COc1ccc(-n2nc3c(ccc4ccccc43)c2NC2CCCCC2)cc1
inactive: [1] 104 % of control | [2] 98 % of control | [3] 102 % of control

CC(O)c1nc2c3ccccc3ccc2n1C (stereo not given)
inactive: [4] 96 % of control | [5] 93 % of control | dose: 200.0 mg/kg/injection, schedule: Q01DX005 (ip), vehicle: saline with Tween-80 92 % of control

CC(NNC(=S)N1CCCCCC1)c1ccccn1 (stereo not given)
inactive: dose: 12.5 mg/kg/injection, schedule: Q01DX005 (ip), vehicle: Klucel (hydroxypropylcellulose) (HPC) 103 % of control | dose: 25.0 mg/kg/injection, schedule: Q01DX005 (ip), vehicle: Klucel (hydroxypropylcellulose) (HPC) 106 % of control | [6] 112 % of control and 113 % of control

CNC(=O)c1ccccc1NC(=O)CCC(=O)O
inactive: [7] 100 % of control | [8] 99 % of control | [9] 100 % of control

C[n+]1c(-c2cc(C(F)(F)F)cc(C(F)(F)F)c2)c2cc(N)ccc2c2ccc(N)cc21
inactive: dose: 2.5 mg/kg/injection, schedule: Q01DX009 (ip), vehicle: water 110 % of control | dose: 5.0 mg/kg/injection, schedule: Q01DX009 (ip), vehicle: water 115 % of control | dose: 10.0 mg/kg/injection, schedule: Q01DX009 (ip), vehicle: water 118 % of control | dose: 80.0 mg/kg/injection, schedule: Q01DX009 (ip), vehicle: water 111 % of control
active: dose: 12.5 mg/kg/injection, schedule: Q01DX009 (ip), vehicle: saline with Tween-80 158 % of control | dose: 20.0 mg/kg/injection, schedule: Q01DX009 (ip), vehicle: water 152 % of control | [10] 166 % of control | [11] 196 % of control

Cc1cc(=O)n(-c2cccc3ccccc23)c(C)c1C(=O)O
inactive: [4] 102 % of control | [5] 94 % of control

O=C1C2=C(Nc3ccccc3N2)OC1c1ccc(Cl)cc1 (stereo not given)
inactive: dose: 7.5 mg/kg/injection, schedule: Q01DX005 (ip), vehicle: Klucel (hydroxypropylcellulose) (HPC) 103 % of control | dose: 15.0 mg/kg/injection, schedule: Q01DX005 (ip), vehicle: Klucel (hydroxypropylcellulose) (HPC) 101 % of control | dose: 30.0 mg/kg/injection, schedule: Q01DX005 (ip), vehicle: Klucel (hydroxypropylcellulose) (HPC) 101 % of control

C=C1C(=O)O[C@H]2C[C@@H]3O[C@@H]3[C@@H]12
inactive: dose: 1.56 mg/kg/injection, schedule: Q01DX009 (ip), vehicle: water 98 % of control | dose: 3.13 mg/kg/injection, schedule: Q01DX009 (ip), vehicle: water 100 % of control | dose: 6.25 mg/kg/injection, schedule: Q01DX009 (ip), vehicle: water 100 % of control | dose: 12.5 mg/kg/injection, schedule: Q01DX009 (ip), vehicle: water 109 % of control

CCC1(O)CC2CN(CCc3c([nH]c4ccccc34)C(C(=O)OC)(c3cc4c(cc3OC)N(C)C3C(O)(C(=O)OC)CC5(CC)C=CCN6CCC43C65)C2)C1 (stereo not given)
active: dose: 4.0 mg/kg/injection, schedule: Q01DX001 (ip), vehicle: saline 150 % of control | dose: 8.0 mg/kg/injection, schedule: Q01DX001 (ip), vehicle: saline 155 % of control | dose: 16.0 mg/kg/injection, schedule: Q01DX001 (ip), vehicle: saline 165 % of control and 175 % of control | dose: 32.0 mg/kg/injection, schedule: Q01DX001 (ip), vehicle: saline 195 % of control and 205 % of control
inactive: dose: 1.0 mg/kg/injection, schedule: Q01DX001 (ip), vehicle: saline 120 % of control and 122 % of control

O=C1c2ccccc2CC12OC2c1ccccc1 (stereo not given)
inactive: dose: 25.0 mg/kg/injection, schedule: Q01DX009 (ip), vehicle: Klucel (hydroxypropylcellulose) (HPC) 96 % of control | dose: 50.0 mg/kg/injection, schedule: Q01DX009 (ip), vehicle: Klucel (hydroxypropylcellulose) (HPC) 92 % of control | dose: 100.0 mg/kg/injection, schedule: Q01DX009 (ip), vehicle: Klucel (hydroxypropylcellulose) (HPC) 92 % of control | dose: 200.0 mg/kg/injection, schedule: Q01DX009 (ip), vehicle: Klucel (hydroxypropylcellulose) (HPC) 89 % of control | dose: 400.0 mg/kg/injection, schedule: Q01DX009 (ip), vehicle: Klucel (hydroxypropylcellulose) (HPC) 92 % of control

COC1C2=C(CCCC2)OC(=O)C1(Cl)c1ccccc1 (stereo not given)
inactive: [6] 96 % of control | dose: 100.0 mg/kg/injection, schedule: Q01DX005 (ip), vehicle: Klucel (hydroxypropylcellulose) (HPC) 101 % of control | dose: 200.0 mg/kg/injection, schedule: Q01DX005 (ip), vehicle: Klucel (hydroxypropylcellulose) (HPC) 101 % of control

O=C(Cc1nc2ccccc2[nH]c1=O)c1cccnc1
inactive: [1] 99 % of control | [2] 94 % of control | [3] 98 % of control

O=C1c2cc([N+](=O)[O-])cc3cc([N+](=O)[O-])cc(c23)C(=O)N1CCN1CCN(CCN2C(=O)c3cc([N+](=O)[O-])cc4cc([N+](=O)[O-])cc(c34)C2=O)CC1
inactive: [12] 100 % of control | [13] 97 % of control | [14] 94 % of control

CC(C)C/C=N/N(C)C=O
inactive: dose: 100.0 mg/kg/injection, schedule: Q04DX002 (ip), vehicle: saline 100 % of control | dose: 200.0 mg/kg/injection, schedule: Q04DX002 (ip), vehicle: saline 100 % of control | dose: 400.0 mg/kg/injection, schedule: Q04DX002 (ip), vehicle: saline 103 % of control

O=C(O)c1ccccc1Nc1cccc([N+](=O)[O-])c1
inactive: dose: 25.0 mg/kg/injection, schedule: Q04DX003 (ip), vehicle: saline 99 % of control | dose: 50.0 mg/kg/injection, schedule: Q04DX003 (ip), vehicle: saline 114 % of control | [7] 114 % of control | [8] 112 % of control

O=c1c(CS(=O)(=O)c2ccccc2)c(-c2ccccc2)c1=O
inactive: [12] 104 % of control | [13] 104 % of control | [14] 97 % of control

C=CN1CCCC1=O
inactive: [7] 104 % of control | [8] 100 % of control | dose: 0.25 % in 0.5 ml injection vol, schedule: Q01DX009 (ip), vehicle: water 100 % of control | [9] 100 % of control | dose: 0.5 % in 0.5 ml injection vol, schedule: Q01DX009 (ip), vehicle: water 107 % of control | dose: 1.0 % in 0.5 ml injection vol, schedule: Q01DX009 (ip), vehicle: water 100 % of control and 102 % of control | dose: 2.0 % in 0.5 ml injection vol, schedule: Q01DX009 (ip), vehicle: water 100 % of control and 98 % of control | dose: 4.0 % in 0.5 ml injection vol, schedule: Q01DX009 (ip), vehicle: water 102 % of control and 104 % of control and 108 % of control | dose: 8.0 % in 0.5 ml injection vol, schedule: Q01DX009 (ip), vehicle: water 102 % of control and 109 % of control and 92 % of control | dose: 16.0 % in 0.5 ml injection vol, schedule: Q01DX009 (ip), vehicle: water 100 % of control and 103 % of control and 95 % of control

CCCCC/C(C=C(C#N)C#N)=C/c1ccccc1
inactive: [10] 103 % of control and 86 % of control | [11] 100 % of control and 123 % of control and 91 % of control | [15] 119 % of control and 92 % of control | [16] 111 % of control

O=C1CC(c2ccc([N+](=O)[O-])cc2)O1 (stereo not given)
inactive: dose: 100.0 mg/kg/injection, schedule: Q01DX001 (ip), vehicle: saline 101 % of control | dose: 200.0 mg/kg/injection, schedule: Q01DX001 (ip), vehicle: saline 104 % of control | dose: 400.0 mg/kg/injection, schedule: Q01DX001 (ip), vehicle: saline 102 % of control

Oc1cc2c(cc1C(c1ccc3c(c1)OCO3)N1CCCC1)OCO2 (stereo not given)
inactive: dose: 60.0 mg/kg/injection, schedule: Q01DX005 (ip), vehicle: Klucel (hydroxypropylcellulose) (HPC) 109 % of control | dose: 120.0 mg/kg/injection, schedule: Q01DX005 (ip), vehicle: Klucel (hydroxypropylcellulose) (HPC) 110 % of control | dose: 240.0 mg/kg/injection, schedule: Q01DX005 (ip), vehicle: Klucel (hydroxypropylcellulose) (HPC) 112 % of control

O=[N+]([O-])c1ccc(C=Nc2ccccc2)cc1
inactive: [11] 101 % of control | [15] 101 % of control | [16] 97 % of control | dose: 400.0 mg/kg/injection, schedule: Q01DX009 (ip), vehicle: saline with Tween-80 96 % of control

CC1=CC(=O)C=C(C)C1=O
inactive: dose: 1.56 mg/kg/injection, schedule: Q04DX003 (ip), vehicle: saline with Tween-80 106 % of control | dose: 3.12 mg/kg/injection, schedule: Q04DX003 (ip), vehicle: saline with Tween-80 89 % of control | dose: 6.25 mg/kg/injection, schedule: Q04DX003 (ip), vehicle: saline with Tween-80 103 % of control
